Results on twelve molecules are retold here after patent US20260183274A1, “PDK1 REGULATORY COMPOUND AND COMPOSITION CONTAINING THE SAME” (PROVIBIO CO., LTD., priority 2024, published 2026).

What is called viability is a read-out of living cells in per cent, often relative to untreated cells.

The structures appear in SMILES notation.

Series [1] deals with Human B Lymphocyte cell line, SU-DHL-8. Description: Relative cell viability CCK-8, SU-DHL-8. The conditions noted are these: for viability at 1 µM / viability at 10 µM / viability at 30 µM / viability at 50 µM: Homo sapiens, SU-DHL-8, 48 h; for viability at 1 µM: read-out: Relative cell viability (%), SU-DHL-8, 1 μM; for viability at 10 µM: read-out: Relative cell viability (%), SU-DHL-8, 10 μM; for viability at 30 µM: read-out: Relative cell viability (%), SU-DHL-8, 30 μM; for viability at 50 µM: read-out: Relative cell viability (%), SU-DHL-8, 50 μM. It counts as cell-based. The method, then: Human-derived B lymphoma cell line SU-DHL-8 (Cat. #CRL-2961) purchased from ATCC was cultured in RPMI-1640 medium containing 10% FBS, 100 U/mL penicillin, and 100 μg/mL streptomycin.
The cell culture medium was then harvested, centrifuged at 1,300 rpm for 5 minutes, and the supernatant was removed. The cells were resuspended in the same medium and dispensed into a 96-well plate (Costar 96-well cell culture plate, Corning) at 90 μL per well, resulting in the conditions specified in Table 5.
Then, 10 μL of CCK-8 was added to each well, and the plates were incubated again at 37° C. in a 5% CO2 incubator for 4 hours.
In other words, when the survival rate of untreated cells (DMSO) is set at 100%, the relative cell survival rate in each group treated with the drug at different concentrations is indicated.

The test system of series [2] is T cells isolated from mouse spleens. Description: T cell proliferation inhibition (CFSE flow cytometry, anti-CD3/anti-CD28 stimulation). The format is cell-based. The conditions noted are these: mouse spleen T cells, 3 days; for inhibition at 0.01 µM / inhibition at 0.1 µM / inhibition at 1 µM / inhibition at 10 µM / inhibition at 30 µM / inhibition at 50 µM: Mus musculus, T-cell, 72 h, read-out: Proliferation inhibition rate (%). Summed up: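 Splenic T cells from 7-week-old C57BL/6 mice were MACS-isolated, CFSE-labelled, seeded at 2×10^5 cells/well and activated with anti-CD3/anti-CD28 (0.5 μg/mL each). Compound at 10 nM–50 μM (six levels, triplicate) was present for 3 days at 37 °C before flow cytometric readout of proliferation inhibition rate.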

[3] abbreviates: 48 hours, untreated (DMSO) = 100%.
Setting [4] is: 1 μM, 48 hours, untreated (DMSO) = 100%.
The mark [5] stands for this setting: 10 μM, 48 hours, untreated (DMSO) = 100%.
Where [6] appears, read: 30 μM, 48 hours, untreated (DMSO) = 100%.
Setting [7] is: 50 μM, 48 hours, untreated (DMSO) = 100%.

On to `COC1CCN(CCCCCCCCCCCCNC(=O)c2cccnc2N)C1` (centres unmarked) [Compound 126, 2-amino-N-(12-(3-methoxypyrrolidin-1-yl)dodecyl) nicotinamide], for which the “Relative cell viability (%), SU-DHL-8” value came to 33.03% in series [1] (1 μM, 48 hours, untreated (DMSO) = 100%, listed as K-PB-48, 1 µM); 31.98% in series [1] (10 μM, 48 hours, untreated (DMSO) = 100%, listed as K-PB-48, 10 µM); 32.32% in series [1] (30 μM, 48 hours, untreated (DMSO) = 100%, listed as K-PB-48, 30 µM); 30.44% in series [1] (50 μM, 48 hours, untreated (DMSO) = 100%, listed as K-PB-48, 50 µM). Also, the “Proliferation inhibition rate (%)” value in series [2] (compound 10 nM, listed as K-PB-48, 0.01 µM) was 0.00%; in series [2] (compound 100 nM), 100.00%; in series [2] (compound 1 μM), 100.00%; in series [2] (compound 10 μM), 100.00%; in series [2] (compound 30 μM) it was 100.00%; in series [2] (compound 50 μM), 100.00%.
For the molecule `COc1ccc(CN2CCN(CCCCCCCCCCCCNC(=O)c3cccnc3N)CC2)cc1` [Compound 28, 2-Amino-N-(12-(4-(4-methoxybenzyl)piperazin-1-yl)dodecyl)nicotinamide], in series [1] (setting [3]), the viability at 1 µM is 5.46%, the viability at 10 µM amounted to 2.82% and the viability at 30 µM amounted to 0.33%. Further, in series [1] (human, 48 h, 50 µM), the “Relative cell viability (%), SU-DHL-8” value is given as −1.55%. Besides, the inhibition at 0.01 µM in series [2] (compound 10 nM) is -0.27%. Moreover, the inhibition at 0.1 µM in series [2] (compound 100 nM) was determined as 100%. Further, the inhibition at 1 µM in series [2] (compound 1 μM) stood at 100%. In addition, the inhibition at 10 µM in series [2] (compound 10 μM) came out at 100%. In addition, the inhibition at 30 µM in series [2] (compound 30 μM) turned out to be 100%. In series [2] (compound 50 μM), the inhibition at 50 µM stood at 100%.
For `Cc1nnc(C)n1CCCCCCCCCCCCNC(=O)c1cccnc1N` [Compound 56, 2-Amino-N-(12-(3,5-dimethyl-4H-1,2,4-triazol-4-yl)dodecyl)nicotinamide], in series [1] (setting [3]), the viability at 1 µM worked out at 32.4%, the viability at 10 µM was determined as 19.6%, the viability at 30 µM was found to be 11.2% and the viability at 50 µM came out at 0%. Also, the inhibition at 0.01 µM in series [2] (compound 10 nM) was -2.51%. In addition, the inhibition at 0.1 µM in series [2] (compound 100 nM) was 2.91%. In addition, in series [2] (compound 1 μM), the inhibition at 1 µM was 81.1%. The inhibition at 10 µM in series [2] (compound 10 μM) was 100%. Further, the inhibition at 30 µM in series [2] (compound 30 μM) is 100%. For the same molecule, the inhibition at 50 µM in series [2] (compound 50 μM) worked out at 100%.
As for `CC1CN(C)C(CCCCCCCCCCCCNc2ccc3cncnc3n2)N1` (centres unmarked) [Compound 43], the “Relative cell viability (%), SU-DHL-8” value in series [1] (setting [4]) was 22.61%; in series [1] (setting [5]), 11.93%; in series [1] (setting [6]), 2.34%; in series [1] (setting [7]), 1.58%. Further, the “Proliferation inhibition rate (%)” value in series [2] (compound 10 nM) is given as −10.80%; in series [2] (compound 100 nM), 100.00%; in series [2] (compound 1 μM), 100.00%; in series [2] (compound 10 μM), 100.00%; in series [2] (compound 30 μM), 100.00%; in series [2] (compound 50 μM), 100.00%.
For `CC1(C)CCN(CCCCCCCCCCCCNC(=O)c2cccnc2N)C1` [Compound 22, 2-Amino-N-(12-(3,3-dimethylpyrrolidin-1-yl)dodecyl) nicotinamide], the “Relative cell viability (%), SU-DHL-8” value is 6.46% in series [1] (setting [4]), 2.85% in series [1] (setting [5]), 2.45% in series [1] (setting [6]) and 1.67% in series [1] (setting [7]). In addition, the “Proliferation inhibition rate (%)” value in series [2] (compound 10 nM) is given as −0.80%; in series [2] (compound 100 nM), 100.00%; in series [2] (compound 1 μM), 100.00%; in series [2] (compound 10 μM), 100.00%; in series [2] (compound 30 μM), 100.00%; in series [2] (compound 50 μM) it was 100.00%.
Consider `CC1CCN(CCCCCCCCCCCCNC(=O)c2cccnc2N)C1` (centres unmarked) [Compound 24, 2-Amino-N-(12-(3-methylpyrrolidin-1-yl)dodecyl) nicotinamide], for which the entries for the “Relative cell viability (%), SU-DHL-8” value in series [1] (setting [4]), in series [1] (setting [5]) and in series [1] (setting [6]) were 8.38%, 1.65% and 0.62%, respectively. Also, the “Proliferation inhibition rate (%)” value in series [2] (compound 10 nM) is given as −7.33%; in series [2] (compound 100 nM) it was 100.00%; in series [2] (compound 1 μM), 100.00%; in series [2] (compound 10 μM), 100.00%; in series [2] (compound 30 μM), 100.00%; in series [2] (compound 50 μM), 100.00%.
`Nc1ncccc1C(=O)NCCCCCCCCCCCCN1CCN(Cc2ccc(F)cc2)CC1` [Compound 27, 2-Amino-N-(12-(4-(4-fluorobenzyl)piperazin-1-yl)dodecyl)nicotinamide]: in series [1] (setting [3]), the viability at 1 µM stood at 6.24%, the viability at 10 µM stood at 4.97%, the viability at 30 µM stood at 2.03% and the viability at 50 µM turned out to be 0.56%. Besides, the inhibition at 0.01 µM in series [2] (compound 10 nM) amounted to 2.27%. For the same molecule, the inhibition at 0.1 µM in series [2] (compound 100 nM) turned out to be 83.3%. In addition, the inhibition at 1 µM in series [2] (compound 1 μM) turned out to be 100%. Besides, the inhibition at 10 µM in series [2] (compound 10 μM) came to 100%. For the same molecule, in series [2] (compound 30 μM), the inhibition at 30 µM was 100%. Besides, the inhibition at 50 µM in series [2] (compound 50 μM) came out at 100%.
For `Nc1ncccc1C(=O)NCCCCCCCCCCCCN1CCS(=O)(=O)CC1` [Compound 25, 2-Amino-N-(12-(1,1-dioxidothiomorpholino)dodecyl) nicotinamide], the “Relative cell viability (%), SU-DHL-8” value is 9.73% in series [1] (setting [4]), 1.26% in series [1] (setting [5]), 0.11% in series [1] (setting [6]) and 0.95% in series [1] (setting [7]). The “Proliferation inhibition rate (%)” value in series [2] (compound 10 nM) is −2.67%; in series [2] (compound 100 nM), 89.43%; in series [2] (compound 1 μM) it was 100.00%; in series [2] (compound 10 μM), 100.00%; in series [2] (compound 30 μM) it was 100.00%; in series [2] (compound 50 μM), 100.00%.
Take `C[C@H]1CNCCN1CCCCCCCCCCCCNC(=O)c1cccnc1N.Cl` [Compound 37, (S)-2-Amino-N-(12-(2-methylpiperazin-1-yl)dodecyl) nicotinamide hydrochloride]: the “Relative cell viability (%), SU-DHL-8” value in series [1] (setting [4]) worked out at 6.38%; in series [1] (setting [5]), 4.45%; in series [1] (setting [6]) it was 3.17%; in series [1] (setting [7]), 2.32%. The “Proliferation inhibition rate (%)” value in series [2] (compound 10 nM) is recorded as −4.14%; in series [2] (compound 100 nM), 33.33%; in series [2] (compound 1 μM), 100.00%; in series [2] (compound 10 μM) it was 100.00%; in series [2] (compound 30 μM) it was 100.00%; in series [2] (compound 50 μM), 100.00%.
As to `CN1CCN(C(=O)OC(C)(C)C)CC1CCCCCCCCNC(=O)c1cccnc1N` (centres unmarked) [Compound 12, tert-Butyl 3-(8-(2-aminonicotinamido)octyl)-4-methylpiperazine-1-carboxylate], in series [1] (setting [3]), the viability at 1 µM is 7.6%, the viability at 10 µM is 3.79%, the viability at 30 µM came to 1.64% and the viability at 50 µM turned out to be 1.13%.
As to `Nc1ncccc1C(=O)NCCCCCCCCCCCF` [Compound 70, 2-Amino-N-(11-fluoro-undecyl)-nicotinamide], in series [1] (setting [3]), the viability at 1 µM amounted to 5.01%, the viability at 10 µM amounted to 4.94% and the viability at 30 µM is 1.45%. Also, the “Relative cell viability (%), SU-DHL-8” value in series [1] (human, 48 h, 50 µM) is −0.57%.
Turning to `Nc1ncccc1C(=O)NCCCCCCCCCCF` [Compound 68, 2-Amino-N-(10-fluoro-decyl)-nicotinamide], in series [1] (setting [3]), the viability at 1 µM came to 16.1% and the viability at 10 µM was 15.3%. The “Relative cell viability (%), SU-DHL-8” value in series [1] (human, 48 h, 30 µM) is −2.90%. For the same molecule, in series [1] (human, 48 h, 50 µM), the “Relative cell viability (%), SU-DHL-8” value was −5.64%.
